Converted amounts (≈) assume the structure as drawn. Like-named read-outs stand apart in the source and are kept apart here.
Key:
[1] = test system: Staph. aureus 01A400R; experiment: minimum inhibitory concentration (MIC), Staph. aureus 01A400R; type: cell-based; settings: Staphylococcus aureus, read-out: MIC Values, Staph. aureus 01A400R
From the text: (§1) The oleandomycin compounds of the present invention are effective in inhibiting the growth of microorganisms, especially Gram-positive microorganisms. The high activity against Gram-positive organisms shown by these compounds is contrasted in some respects with the lower activity against Gram-negative organisms. The following table illustrates the in vitro antibiotic spectrum of the compounds of the instant invention. The tests were run according to the "minimum inhibitory concentration"(MIC) procedure of Ericsson and Sherris [H. M. Ericsson and J. C. Sherris, Acta. Pathol. Microbiol. Scand. Suppl., 217B 64 (1971)].

[2] = test system: Klebsiella pn. 53A009; experiment: minimum inhibitory concentration (MIC), Klebsiella pn. 53A009; type: cell-based; settings: in vitro; Klebsiella pn. 53A009, Gram-negative
From the text: as §1

[3] = test system: E. coli 51A266; experiment: minimum inhibitory concentration (MIC), E. coli 51A266; type: cell-based; settings: Escherichia coli; in vitro; E. coli 51A266, Gram-negative
From the text: as §1

[4] = test system: Staph. aureus 01A005; experiment: minimum inhibitory concentration (MIC), Staph. aureus 01A005; type: cell-based; settings: Staphylococcus aureus; in vitro; Staph. aureus 01A005, Gram-positive
From the text: as §1

[5] = test system: Salm. typhm. 58D009; experiment: minimum inhibitory concentration (MIC), Salm. typhm. 58D009; type: cell-based; settings: in vitro; Salm. typhm. 58D009, Gram-negative
From the text: as §1

[6] = test system: B. subtilis; experiment: minimum inhibitory concentration (MIC), B. subtilis; type: cell-based; settings: Bacillus subtilis, in vitro, Gram-positive
From the text: as §1

[7] = test system: Staph. aureus 01A005; experiment: protection against in vivo infection of mice infected with Staph. aureus 01A005; settings: subcutaneous or oral administration to mice infected with Staph. aureus 01A005; compared with natural oleandomycin
Experimental: The ability of the compounds of the present invention to protect against in vivo infections was determined by subcutaneous or oral administration to mice infected with Staph. aureus 01A005. Using the test method described by Retsema [J. A. Retsema et al., Antimicr.

[8] = in vitro, Staph. aureus 01A400R, Gram-positive

| SMILES | MIC [1, 8] | MIC [2] | MIC [3] | MIC [4] | MIC [5] | MIC [6] | protection against infection [7] | MIC ([1]; 01A400R) |
| --- | --- | --- | --- | --- | --- | --- | --- | --- |
| COC1CC(OC2C(C)C(=O)OC(C)C(C)C(OC(C)=O)C(C)C(=O)C3(CC3)CC(C)C(OC3OC(C)CC(N(C)C)C3OC(C)=O)C2C)OC(C)C1O (centres unmarked) [Compound III Ac H Ac, 8,8a-Deoxy-8,8a-Cyclopropyl-2',11-Diacetyloleandomycin] | 3.12 µg/mL (≈ 4.05 µM) | > 200 µg/mL | > 200 µg/mL | 0.2 µg/mL (≈ 0.26 µM) | > 200 µg/mL | 0.78 µg/mL (≈ 1.01 µM) | – | – |
| C=C1CC(C)C(OC2OC(C)CC(N(C)C)C2OC(C)=O)C(C)C(OC2CC(OC)C(OC(C)=O)C(C)O2)C(C)C(=O)OC(C)C(C)C(OC(C)=O)C(C)C1=O (centres unmarked) [Compound II Ac Ac Ac, 8,8a-Deoxy-8,8a-Methylene-2',4",11-Triacetyloleandomycin] | 200 µg/mL (≈ 251 µM) | > 200 µg/mL | > 200 µg/mL | 25 µg/mL (≈ 31.3 µM) | > 200 µg/mL | – | – | – |
| C=C1CC(C)C(OC2OC(C)CC(N(C)C)C2OC(C)=O)C(C)C(OC2CC(OC)C(O)C(C)O2)C(C)C(=O)OC(C)C(C)C(OC(C)=O)C(C)C1=O (centres unmarked) [Compound II Ac H Ac, 8,8a-Deoxy-8,8a-Methylene-2',11-Diacetyloleandomycin] | > 200 µg/mL | > 200 µg/mL | > 200 µg/mL | 3.12 µg/mL (≈ 4.13 µM) | > 200 µg/mL | 3.12 µg/mL (≈ 4.13 µM) | – | – |
| C=C1CC(C)C(OC2OC(C)CC(N(C)C)C2OC(C)=O)C(C)C(OC2CC(OC)C(OC(C)=O)C(C)O2)C(C)C(=O)OC(C)C(C)C(OC(=O)C(F)(F)F)C(C)C1=O (centres unmarked) [Compound II Ac Ac drawing 7, 8,8a-Deoxy-8,8a-Methylene-2',4"-Diacetyl-11-Trifluoroacetyloleandomycin] | 200 µg/mL (≈ 235 µM) | > 200 µg/mL | > 200 µg/mL | 25 µg/mL (≈ 29.3 µM) | > 200 µg/mL | 25 µg/mL (≈ 29.3 µM) | – | – |
| C=C1CC(C)C(OC2OC(C)CC(N(C)C)C2O)C(C)C(OC2CC(OC)C(O)C(C)O2)C(C)C(=O)OC(C)C(C)C(O)C(C)C1=O (centres unmarked) [Compound II H H H, 8,8a-Deoxy-8,8a-Methylene-Oleandomycin] | 25 µg/mL (≈ 37.2 µM) | > 200 µg/mL | > 200 µg/mL | 6.25 µg/mL (≈ 9.3 µM) | – | – | protection against infection which was comparable to natural oleandomycin | – |
| COC1CC(OC2C(C)C(=O)OC(C)C(C)C(OC(C)=O)C(C)C(=O)C3(CC3)CC(C)C(OC3OC(C)CC(N(C)C)C3OC(C)=O)C2C)OC(C)C1OC(C)=O (centres unmarked) [Compound III Ac Ac Ac, 8,8a-Deoxy-8,8a-Cyclopropyl-2',4",11-Triacetyloleandomycin] | 12.5 µg/mL (≈ 15.4 µM) | > 200 µg/mL | > 200 µg/mL | 1.56 µg/mL (≈ 1.92 µM) | > 200 µg/mL | 3.12 µg/mL (≈ 3.84 µM) | – | – |
| COC1CC(OC2C(C)C(=O)OC(C)C(C)C(O[Si](C)(C)C)C(C)C(=O)C3(CC3)CC(C)C(OC3OC(C)CC(N(C)C)C3OC(C)=O)C2C)OC(C)C1OC(C)=O (centres unmarked) [Compound III Ac Ac Me3 Si, 8,8a-Deoxy-8,8a-Cycloproyl-2',4"-Diacetyl-11-Trimethylsilyloleandomycin] | – | > 200 µg/mL | > 200 µg/mL | 3.12 µg/mL (≈ 3.7 µM) | > 200 µg/mL | 12.5 µg/mL (≈ 14.8 µM) | – | > 200 µg/mL |
| COC1CC(OC2C(C)C(=O)OC(C)C(C)C(O)C(C)C(=O)C3(CC3)CC(C)C(OC3OC(C)CC(N(C)C)C3O)C2C)OC(C)C1O (centres unmarked) [Compound III H H H, 8,8a-Deoxy-8,8a-Cyclopropyloleandomycin] | 1.56 µg/mL (≈ 2.27 µM) | > 200 µg/mL | > 200 µg/mL | 0.2 µg/mL (≈ 0.292 µM) | > 200 µg/mL | 0.39 µg/mL (≈ 0.569 µM) | protection against infection which was comparable to natural oleandomycin | – |

— patent publication US4069379A, “Semi-synthetic oleandomycins” (Pfizer Inc., priority 1976, dated 1978)
